Legend:
Format in all cases: cell-based, human
CAR T cells [1] = assay: CAR T cell proliferation in CAR T cell:cancer cell co-culture (Cell Trace Violet, flow cytometry); settings: CAR T:tumour cell co-culture 1:1; concentrations of Table 2
Description: CAR T cell proliferation is confirmed by Cell Trace™ Violet staining of CAR T cells (staining agent having been added prior to addition of the T cells to the co-cultures with tumour cells). Staining may be observed, following co-culture, via flow cytometry.
(§1) UR-13870, Ralimetinib or Acumapimod are each added to a culture of CD19+ cancer cells (using a micropipette to transfer the correct volume to achieve the desired final concentration in Table 2).
(§2) CAR T cells are then added to the same culture 5-10 minutes later. In brief, CAR T cell concentrations per ml are determined and used to aliquot the desired number of CAR T cells into the culture to achieve the described 1:1 CAR T to cancer cell ratio.
(§3) The co-culture containing CAR T cells and tumour cells is swirled gently to ensure homogenous dispersion of cells throughout the vessel. The resultant co-culture is incubated for 24 to 96 hours in a closed incubator at 37° C. with 5% CO2 and a suitably humid atmosphere.

CD19+ cancer cells = assay: CAR T cell killing of tumour cells in 24-hour co-culture (flow cytometry); settings: high dose only, CAR T to cancer cell ratio 1:1
Excerpt: Raji immortalized human B cell line CD19-expressing cancer cells (available from the American Type Culture Collection) are acquired and stable transfection of the Raji cell line is generated with an mCherry reporter protein to facilitate identification of the cancer cells within co-cultures by detection of the mCherry protein fluorescence by flow cytometry.
as §1, §2, §3
Tumour cell death is observed by examining relative CAR T cell:tumour cell numbers by flow cytometry following 24 hour co-culture, as shown in FIG. 7.

CAR T cells [2] = assay: T cell exhaustion markers TIM3 and LAG3 on CAR T cells in co-culture (flow cytometry); settings: CAR T:tumour cell co-culture, concentrations of Table 2
Description: as §1, §2, §3
Both T cell surface markers T cell immunoglobulin and mucin domain-containing protein 3 (TIM3/CD366) and Lymphocyte Activation Gene 3 (LAG3/CD223) are associated with T cell exhaustion and disease progression during immunotherapy treatment. Advantageously, all of UR-13870, Ralimetinib and Acumapimod reduce both the number of TIM3+ CAR T cells, and the number of LAG3+ CAR T cells. […] For LAG3+, the results for Ralimetinib at a 5 μM concentration appear to have been affected by experimental failure, and these may be disregarded accordingly.

THP-1 monocytes = assay: IL-6 ELISA of THP-1 monocytes treated with sCAR; settings: sCAR stimulation, 24 hours; concentrations of Table 2
Description: In Example 3 below, sCAR (or smCAR) is added using a micropipette to an in vitro culture of monocyte cells of the human monocytic cell line THP-1, available from the American Type Culture Collection. The culture is incubated in a closed incubator at 37° C. with 5% CO2 and a suitably humid atmosphere for approximately 24 hours, following which cytokine release is observed. p38 MAPK activation and cytokine release are confirmed by evaluation of the presence of IL-6 in THP-1 cells using an enzyme-linked immunosorbent assay (ELISA; for which a kit is suitably obtainable from Thermo Fisher Scientific of Kingfisher Dr, Swindon SN3 5BZ, UK).
(i) Monocytes sCAR (or smCAR), produced as described in Example 1 above, is added to a monoculture of THP-1 monocytes in the presence of UR-13870, Ralimetinib or Acumapimod at each of the concentrations shown in Table 2 above at 37° C., 5% CO2 and a suitably humid environment for 24 hours.
Supernatant levels of IL-6 from the THP-1 monocyte monoculture with sCAR (or smCAR) are determined by ELISA.

Which results are given for `OCCCn1cc2c(-c3ccc(F)cc3)c(-c3ccncc3)c(-c3ccc(F)cc3)nc2n1` [UR-13870, 6-bis(4-fluorophenyl)-5-(4-pyridinyl)-2Hpyrazolo[3,4-b]pyridine-2-propanol]?
CAR T cell proliferation (Cell Trace Violet staining) (CAR T cells [1]): maintain CAR T cell proliferation; CAR T cell-induced cancer cell death (percentage of residual tumour cells in the co-culture) (CD19+ cancer cells): maintain CAR T cell-induced cancer cell death; number of TIM3+ CAR T cells (CAR T cells [2]): reduce; number of LAG3+ CAR T cells (CAR T cells [2]; Ralimetinib 5 μM results to be disregarded): reduce; IL-6 secretion by THP-1 monocytes (THP-1 monocytes): significantly reduce
